Assay [1] has as its target T1, NL-IL23R and IL12Rβ1 (IL-23 receptor) on HEK293T cells (Homo sapiens, UniProt P42701+Q5VWK5).
T1 construct: expressed in transfected cells; host or cells: HEK293T (ATCC CRL-3216), transient transfection
As to the kind of experiment: IL23-TMR NanoBRET competition assay. Type of assay: binding. The note with it: 300 pM IL23-TMR. The procedure: Schematic created with Biorender.com. IL23R is shown in orange, IL12Rβ1 in purple, IL23p19 in blue, IL12p40 in green and the presence of a TAMRA fluorophore by a pink star. […] In b and c, data are mean ± SEM from 5 independent experiments conducted in either duplicate or triplicate. Details on absolute number of data points included for each concentration are provided in the associated Source Data file.
(§1) Transient transfections for experiments outlined in Fig. 6 were conducted by seeding 100 μL of 2 × 10^5 cells/ml concentrated HEK293T cells into poly-D-lysine (PDL) coated white 96 well clear bottom assay microplates (Greiner) and incubating overnight. The following day transfection mixes were made up that contained a 4:1 ratio of IL23R to IL12Rβ1 constructs to a total concentration of 100 ng per well with a 0.3 μL per well of FuGENE HD transfection reagent (Promega) in OptiMEM (Gibco). These mixtures were incubated for 10 min before being added to the plate at 5 μL per well. The cells were then incubated overnight to allow expression. For all other experiments 2 mL containing 4 × 10^5 cells were seeded into 6 well plates and incubated 5 h before being transiently transfected with 100 μL per well of a transfection mix containing 2 μg of DNA and 6 μL of FuGENE HD. These cells were then incubated overnight before being re-suspended the following day and seeded into PDL coated white assay microplates at 100 μL containing 3 × 10^4 transfected cells. Cells were then incubated overnight before the experiment. Estimates of total expression levels for the different NL-constructs were made by comparing the luminescence levels achieved to that of a NanoLuciferase standard curve measured under the same conditions (Supplementary Fig. 1).
Media was removed from white 96-well microplates containing transfected cells and replaced with fluoroprobe in the presence or absence of antagonist in 50 μL Hanks Balanced Salt Solution (HBSS) with 1 mg/mL BSA (Merck).
(§2) Antagonist competition data were fit with the equation:4 Y=Bmin+Bmax−Bmin/1+10^(LogXC50−[A])C Where ‘Bmax’ is the maximum BRET signal, ‘Bmin’ is the minimum BRET signal, ‘LogXC50’ is the log of the 50% inhibiting concentration of antagonist, ‘[A]’ is the concentration of antagonist and ‘C’ is the Hill slope.

Assay [2] concerns the target T1, NL-IL23R and IL12Rβ1 (IL-23 receptor) on HEK293T cells. Briefly: P630-TMR NanoBRET competition assay. In kind it is binding. Particulars: Fig. 5a. The procedure:
as §1
Media was removed from white 96-well microplates containing transfected cells and replaced with fluoroprobe in the presence or absence of antagonist in 50 μL Hanks Balanced Salt Solution (HBSS) with 1 mg/mL BSA (Merck). After a 1-hour incubation at 37 °C without CO2, 5 μL of HBSS containing 77 μM furimizine was added to each well (final concentration 7 μM), the plate incubated for 5-minutes and the BRET signal measured using a PheraStar FS plate reader (BMG Labtech; data acquisition software version 5.41; MARS analysis software version 3.32) with a 450 ± 30 nm and >550 nm long pass filters.
as §2
Background: Bioluminescence resonance energy transfer reports proximity on the nanometre scale.

Assay [3] addresses HiBit-IL23R and LgBit-IL12Rβ1 (Homo sapiens, UniProt Q5VWK5). The note with it: 10 μM P630. An excerpt:
Finally, we utilised a NanoBiT BRET system in which a complemented luciferase with fragments bound to both receptor subunits (Fig. 3) can be used as a BRET donor to measure interactions with binary receptor complexes.
Data in b are mean ± SEM from three independent experiments. In each individual experiment, triplicate determinations were made for total binding and duplicate or triplicate determinations made for non-specific binding. Data in c are the mean values obtained in five independent experiments, each conducted with six replicates. […] Data in d are the mean ± SEM from five (NL-IL23R and NL-23R + IL12Rβ1) or three (HiBit-IL23R + LgBit-IL12Rβ1) independent experiments. Source data are provided as a Source Data file.

T1 sequence (Q5VWK5 24-629, other chains not shown): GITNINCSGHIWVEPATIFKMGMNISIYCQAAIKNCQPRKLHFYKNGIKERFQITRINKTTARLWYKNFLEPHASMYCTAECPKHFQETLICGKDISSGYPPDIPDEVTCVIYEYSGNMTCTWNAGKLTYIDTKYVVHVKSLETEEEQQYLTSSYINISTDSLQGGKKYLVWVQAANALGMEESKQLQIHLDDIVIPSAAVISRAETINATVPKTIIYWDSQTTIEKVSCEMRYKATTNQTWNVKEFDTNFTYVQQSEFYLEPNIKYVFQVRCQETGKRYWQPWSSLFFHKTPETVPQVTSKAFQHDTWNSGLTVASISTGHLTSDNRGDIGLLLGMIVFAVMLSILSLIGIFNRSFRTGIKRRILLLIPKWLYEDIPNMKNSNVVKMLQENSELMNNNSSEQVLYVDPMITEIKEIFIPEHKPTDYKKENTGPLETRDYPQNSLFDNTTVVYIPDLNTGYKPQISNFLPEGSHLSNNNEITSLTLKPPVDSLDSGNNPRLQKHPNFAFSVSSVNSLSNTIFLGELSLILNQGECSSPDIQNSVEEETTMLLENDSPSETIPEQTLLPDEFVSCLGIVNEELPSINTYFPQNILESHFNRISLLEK
HiBit-IL23R and LgBit-IL12Rβ1, sequence (Q5VWK5 24-629, other chains not shown): as above

For `COc1ccc(C[C@H](NC(=O)[C@H]2NC(=O)[C@H](CCC(N)=O)NC(=O)[C@H](Cc3c[nH]c4ccccc34)NC(=O)[C@H]([C@@H](C)O)NC(=O)[C@H](CC(N)=O)NC(=O)[C@@H](NC(C)=O)C(C)(C)SSC2(C)C)C(=O)N[C@@H](Cc2ccc3ccccc3c2)C(=O)NC(C)(C)C(=O)N[C@@H](CCC(=O)O)C(=O)N[C@@H](CC(N)=O)C(=O)N[C@@H](CC(N)=O)C(N)=O)cc1` [P630], the “Inhibition of IL23-TMR binding (Mean)” value in assay [1] ([P630] -5.09151 logM) came out at 84.0625; in assay [1] ([P630] -5.56864 logM) it was 77.8076; in assay [1] ([P630] -6.04576 logM), 62.3503; in assay [1] ([P630] -6.52288 logM), 55.1992; in assay [1] ([P630] -7 logM) it was 30.8209; in assay [1] ([P630] -7.47712 logM) it was 11.8559. Also, the “Inhibition of IL23-TMR binding (Mean)” value is recorded as 6.902 in assay [1] ([P630] -7.95424 logM), 4.004 in assay [1] ([P630] -8.90849 logM), -5.834 in assay [1] ([P630] -9.38561 logM) and 10.7231 in assay [1] ([P630] -9.86273 logM). Also, the “Displacement of 75 nM P630-TMR (Mean)” value in assay [2] ([P630] -4.69897 logM) is 100.016; in assay [2] ([P630] -5.69897 logM), 98.9078; in assay [2] ([P630] -6.69897 logM), 89.0568; in assay [2] ([P630] -7.69897 logM) it was 51.2574; in assay [2] ([P630] -8.69897 logM) it was 11.835; in assay [2] ([P630] -9.69897 logM), -0.3727. Besides, the entries for the “Displacement of 75 nM P630-TMR (Mean)” value in assay [2] ([P630] -10.699 logM) and in assay [2] ([P630] -11.699 logM) were 3.757 and 1.217, respectively. In addition, in assay [3], the “Effect on receptor dimerisation (NanoLuc complementation)” value was “did not affect receptor dimerisation”.

Values taken from article PMC10199020 (Nature Communications, 2023).
